According to patent US8686044B2, “Amide derivative, pest control agent containing the amide derivative, and use of the amide derivative” (Mitsui Chemicals Agro, Inc., priority 2008, dated 2014):

How the values were obtained:
Assay type in all cases: in vivo
Blattella germanica = assay: Pesticidal test against Blattella germanica (petri dish dry film); settings: 24 h, concentration 100 ppm, female adults, examined after 1 day, 25° C., read-out: pesticidal rate
Description: Pesticidal Test against Blattella germanica
1 ml of an acetone solution in which a test compound had been prepared at a predetermined concentration was added dropwise to a petri dish having a diameter of 9 cm, and air-dried, and then the female adults of Blattella germanica were released and the petri dish was capped. They were left to stand in a thermostatic chamber at 25° C., and the numbers of the living pests and the dead pests were examined after 1 day. The test was carried out with five larvae per group in two replicates.

Spodoptera litura = assay: Pesticidal test against Spodoptera litura (cabbage leaf dip); settings: foliar, 144 h, concentration 1 ppm, 2-stage larvae, examined after 6 days, 25° C., read-out: pesticidal rate
Outline: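 Cabbage leaf pieces dipped 30 seconds in compound solution at a predetermined concentration and air-dried, then offered to second-stage larvae, five per group in two replicates. Held at 25° C. Living and dead larvae counted after 6 days.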

Musca domestica = assay: Pesticidal test against Musca domestica (petri dish dry film); settings: 24 h, concentration 100 ppm, female adults, examined after 1 day, 25° C., read-out: pesticidal rate
Outline: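 Female adult houseflies were confined at 25° C in capped 9 cm petri dishes coated with an air-dried film from 1 ml acetone solution of compound (predetermined concentration). Mortality was scored 1 day later, two replicates of five per group.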

Plutella xylostella = assay: Pesticidal test against Plutella xylostella (cabbage leaf dip); settings: foliar, 144 h, concentration 1 ppm, 2-stage larvae, examined after 6 days, 25° C., read-out: pesticidal rate
Outline: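 Second-stage larvae (5 per group, two replicates) were released onto air-dried cabbage leaf discs that had been immersed for 30 seconds in compound solution at a set concentration. Mortality was scored after 6 days at 25° C.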

Laodelphax striatellus = assay: Pesticidal test against Laodelphax striatellus (rice seedling spray); settings: 144 h, concentration 100 ppm, 3-stage larvae, examined after 6 days, 25° C., read-out: pesticidal rate
Outline: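 Rice seedlings sprayed with 2.5 ml acetone solution of compound at a predetermined concentration, air-dried, then infested with third-stage Laodelphax striatellus larvae in capped water-containing tubes at 25 °C. Living and dead insects counted after 6 days; ten larvae per group, two replicates.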

Choristoneura magnanima = assay: Pesticidal test against Choristoneura magnanima (artificial feed dip); settings: 144 h, concentration 1 ppm, 2-stage larvae, examined after 6 days, 25° C., read-out: pesticidal rate
Outline: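 Second-stage larvae, five per group in duplicate, fed artificial diet that had been immersed 30 s in test solution at a predetermined concentration and air-dried. Mortality scored at day 6, 25° C.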

Adoxophyes honmai = assay: Pesticidal test against Adoxophyes honmai (artificial feed dip); settings: 144 h, concentration 1 ppm, 2-stage larvae, examined after 6 days, 25° C., read-out: pesticidal rate
Outline: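 Second-instar larvae, five per group in duplicate, were released onto air-dried feed slices previously immersed for 30 s in compound solution at a set concentration. Mortality was scored on day 6 at 25° C.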

Helicoverpa armigera = assay: Pesticidal test against Helicoverpa armigera (cabbage leaf disk dip); settings: foliar, 72 h, concentration 1 ppm, 2-stage larvae, examined after 3 days, 25° C., read-out: pesticidal rate
Outline: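 Cabbage leaf disks were dipped for 30 s in test solution at a set concentration and air-dried. Second-instar larvae were placed one per hole and held at 25 °C, with live and dead counts taken after 3 days. Five larvae per group were tested in two replicates.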

N#Cc1ccc(C(=O)Nc2c(Br)cc(C(F)(C(F)(F)F)C(F)(F)F)cc2C(F)(F)F)c(F)c1NC(=O)c1ccccc1 [1-1925]
≥ 70%: pest or weed control at 100 ppm (Blattella germanica) | pest or weed control at 1 ppm (Spodoptera litura) | pest or weed control at 100 ppm (Musca domestica) | pest or weed control at 1 ppm (Plutella xylostella)

O=C(Nc1c(Br)cc(C(F)(C(F)(F)F)C(F)(F)C(F)(F)F)cc1Br)c1cccc(NC(=O)c2ccccc2F)c1 (centres unmarked) [6-39]
≥ 70%: pest or weed control at 100 ppm (Blattella germanica) | pest or weed control at 1 ppm (Spodoptera litura) | pest or weed control at 100 ppm (Musca domestica) | pest or weed control at 100 ppm (Laodelphax striatellus) | pest or weed control at 1 ppm (Plutella xylostella)

O=C(Nc1c(Br)cc(C(F)(C(F)(F)F)C(F)(F)C(F)(F)F)cc1Br)c1cccc(NC(=O)c2c(F)cccc2F)c1 (centres unmarked) [6-47]
≥ 70%: pest or weed control at 100 ppm (Blattella germanica) | pest or weed control at 1 ppm (Spodoptera litura) | pest or weed control at 100 ppm (Musca domestica) | pest or weed control at 100 ppm (Laodelphax striatellus) | pest or weed control at 1 ppm (Plutella xylostella)

O=C(Nc1cccc(C(=O)Nc2c(Br)cc(C(F)(C(F)(F)F)C(F)(F)C(F)(F)F)cc2C(F)(F)F)c1)c1ccccc1 (centres unmarked) [6-346]
≥ 70%: pest or weed control at 100 ppm (Blattella germanica) | pest or weed control at 1 ppm (Spodoptera litura) | pest or weed control at 100 ppm (Musca domestica) | pest or weed control at 100 ppm (Laodelphax striatellus) | pest or weed control at 1 ppm (Plutella xylostella)

O=C(Nc1c(Br)cc(C(F)(C(F)(F)F)C(F)(F)C(F)(F)F)cc1C(F)(F)F)c1cccc(NC(=O)c2c(F)cccc2F)c1 (centres unmarked) [6-368]
≥ 70%: pest or weed control at 100 ppm (Blattella germanica) | pest or weed control at 1 ppm (Spodoptera litura) | pest or weed control at 100 ppm (Musca domestica) | pest or weed control at 100 ppm (Laodelphax striatellus) | pest or weed control at 1 ppm (Plutella xylostella)

O=C(Nc1cccc(C(=O)Nc2c(Br)cc(C(F)(C(F)(F)F)C(F)(F)F)cc2Br)c1F)c1ccccc1F [6-1105]
≥ 70%: pest or weed control at 100 ppm (Blattella germanica) | pest or weed control at 1 ppm (Spodoptera litura) | pest or weed control at 100 ppm (Musca domestica) | pest or weed control at 1 ppm (Plutella xylostella)

O=C(Nc1cccc(C(=O)Nc2c(Br)cc(C(F)(C(F)(F)F)C(F)(F)F)cc2Br)c1F)c1ccc(F)cc1 [6-1107]
≥ 70%: pest or weed control at 100 ppm (Blattella germanica) | pest or weed control at 1 ppm (Spodoptera litura) | pest or weed control at 100 ppm (Musca domestica) | pest or weed control at 100 ppm (Laodelphax striatellus) | pest or weed control at 1 ppm (Plutella xylostella)

N#Cc1ccc(C(=O)Nc2cccc(C(=O)Nc3c(Br)cc(C(F)(C(F)(F)F)C(F)(F)F)cc3Br)c2F)cc1 [6-1125]
≥ 70%: pest or weed control at 100 ppm (Blattella germanica) | pest or weed control at 1 ppm (Spodoptera litura) | pest or weed control at 100 ppm (Musca domestica) | pest or weed control at 1 ppm (Plutella xylostella)

N#Cc1cccc(C(=O)Nc2cccc(C(=O)Nc3c(I)cc(C(F)(C(F)(F)F)C(F)(F)F)cc3I)c2F)c1 [6-1280]
≥ 70%: pest or weed control at 100 ppm (Blattella germanica) | pest or weed control at 1 ppm (Spodoptera litura) | pest or weed control at 100 ppm (Laodelphax striatellus) | pest or weed control at 1 ppm (Plutella xylostella)

O=C(Nc1cccc(C(=O)Nc2c(I)cc(C(F)(C(F)(F)F)C(F)(F)F)cc2I)c1F)c1cccnc1Cl [6-1296]
≥ 70%: pest or weed control at 100 ppm (Blattella germanica) | pest or weed control at 1 ppm (Spodoptera litura) | pest or weed control at 100 ppm (Laodelphax striatellus) | pest or weed control at 1 ppm (Plutella xylostella)

O=C(Nc1cccc(C(=O)Nc2c(Br)cc(C(F)(C(F)(F)F)C(F)(F)F)cc2C(F)(F)F)c1F)c1cccnc1Cl [6-1610]
≥ 70%: pest or weed control at 100 ppm (Blattella germanica) | pest or weed control at 1 ppm (Spodoptera litura) | pest or weed control at 100 ppm (Laodelphax striatellus) | pest or weed control at 1 ppm (Plutella xylostella)

CN(C(=O)c1cccnc1Br)c1cccc(C(=O)Nc2c(Br)cc(C(F)(C(F)(F)F)C(F)(F)F)cc2C(F)(F)F)c1 [7-305]
≥ 70%: pest or weed control at 100 ppm (Blattella germanica) | pest or weed control at 1 ppm (Spodoptera litura) | pest or weed control at 100 ppm (Laodelphax striatellus) | pest or weed control at 1 ppm (Plutella xylostella)

CN(C(=O)c1ccccc1F)c1cccc(C(=O)Nc2c(Br)cc(C(F)(C(F)(F)F)C(F)(F)C(F)(F)F)cc2C(F)(F)F)c1 (centres unmarked) [7-347]
≥ 70%: pest or weed control at 100 ppm (Blattella germanica) | pest or weed control at 1 ppm (Spodoptera litura) | pest or weed control at 1 ppm (Plutella xylostella)

CN(C(=O)c1ccc(F)cc1)c1cccc(C(=O)Nc2c(Br)cc(C(F)(C(F)(F)F)C(F)(F)C(F)(F)F)cc2C(F)(F)F)c1 (centres unmarked) [7-349]
≥ 70%: pest or weed control at 100 ppm (Blattella germanica) | pest or weed control at 1 ppm (Spodoptera litura) | pest or weed control at 100 ppm (Musca domestica) | pest or weed control at 1 ppm (Plutella xylostella)

CN(C(=O)c1ccc(C#N)cc1)c1cccc(C(=O)Nc2c(Br)cc(C(F)(C(F)(F)F)C(F)(F)C(F)(F)F)cc2C(F)(F)F)c1 (centres unmarked) [7-367]
≥ 70%: pest or weed control at 100 ppm (Blattella germanica) | pest or weed control at 1 ppm (Spodoptera litura) | pest or weed control at 100 ppm (Musca domestica) | pest or weed control at 1 ppm (Plutella xylostella)

CN(C(=O)c1ccccc1F)c1cccc(C(=O)Nc2c(I)cc(C(F)(C(F)(F)F)C(F)(F)F)cc2I)c1F [7-1261]
≥ 70%: pest or weed control at 100 ppm (Blattella germanica) | pest or weed control at 1 ppm (Spodoptera litura) | pest or weed control at 100 ppm (Laodelphax striatellus) | pest or weed control at 1 ppm (Plutella xylostella)

CN(C(=O)c1ccccc1)c1cccc(C(=O)Nc2c(Br)cc(C(F)(C(F)(F)F)C(F)(F)C(F)(F)F)cc2C(F)(F)F)c1F (centres unmarked) [7-1652]
≥ 70%: pest or weed control at 1 ppm (Spodoptera litura) | pest or weed control at 100 ppm (Musca domestica) | pest or weed control at 1 ppm (Choristoneura magnanima) | pest or weed control at 100 ppm (Laodelphax striatellus) | pest or weed control at 1 ppm (Adoxophyes honmai) | pest or weed control at 1 ppm (Plutella xylostella) | pest or weed control at 1 ppm (Helicoverpa armigera)

CN(C(=O)c1cccnc1)c1cccc(C(=O)Nc2c(I)cc(C(F)(C(F)(F)F)C(F)(F)F)cc2C(F)(F)F)c1F [7-1764]
≥ 70%: pest or weed control at 1 ppm (Spodoptera litura) | pest or weed control at 100 ppm (Musca domestica) | pest or weed control at 1 ppm (Choristoneura magnanima) | pest or weed control at 100 ppm (Laodelphax striatellus) | pest or weed control at 1 ppm (Adoxophyes honmai) | pest or weed control at 1 ppm (Plutella xylostella) | pest or weed control at 1 ppm (Helicoverpa armigera)

CN(C(=O)c1ccccc1)c1cccc(C(=O)Nc2c(I)cc(C(F)(C(F)(F)F)C(F)(F)C(F)(F)F)cc2C(F)(F)F)c1F (centres unmarked) [7-1808]
≥ 70%: pest or weed control at 1 ppm (Spodoptera litura) | pest or weed control at 100 ppm (Musca domestica) | pest or weed control at 1 ppm (Choristoneura magnanima) | pest or weed control at 100 ppm (Laodelphax striatellus) | pest or weed control at 1 ppm (Adoxophyes honmai) | pest or weed control at 1 ppm (Plutella xylostella) | pest or weed control at 1 ppm (Helicoverpa armigera)

CN(C(=O)c1ccccc1F)c1cccc(C(=O)Nc2c(I)cc(C(F)(C(F)(F)F)C(F)(F)C(F)(F)F)cc2C(F)(F)F)c1F (centres unmarked) [7-1809]
≥ 70%: pest or weed control at 1 ppm (Spodoptera litura) | pest or weed control at 100 ppm (Musca domestica) | pest or weed control at 1 ppm (Choristoneura magnanima) | pest or weed control at 100 ppm (Laodelphax striatellus) | pest or weed control at 1 ppm (Adoxophyes honmai) | pest or weed control at 1 ppm (Plutella xylostella) | pest or weed control at 1 ppm (Helicoverpa armigera)

CN(C(=O)c1cccc(F)c1)c1cccc(C(=O)Nc2c(I)cc(C(F)(C(F)(F)F)C(F)(F)C(F)(F)F)cc2C(F)(F)F)c1F (centres unmarked) [7-1810]
≥ 70%: pest or weed control at 1 ppm (Spodoptera litura) | pest or weed control at 100 ppm (Musca domestica) | pest or weed control at 1 ppm (Choristoneura magnanima) | pest or weed control at 100 ppm (Laodelphax striatellus) | pest or weed control at 1 ppm (Adoxophyes honmai) | pest or weed control at 1 ppm (Plutella xylostella) | pest or weed control at 1 ppm (Helicoverpa armigera)

CN(C(=O)c1ccc(F)cc1)c1cccc(C(=O)Nc2c(I)cc(C(F)(C(F)(F)F)C(F)(F)C(F)(F)F)cc2C(F)(F)F)c1F (centres unmarked) [7-1811]
≥ 70%: pest or weed control at 1 ppm (Spodoptera litura) | pest or weed control at 100 ppm (Musca domestica) | pest or weed control at 1 ppm (Choristoneura magnanima) | pest or weed control at 100 ppm (Laodelphax striatellus) | pest or weed control at 1 ppm (Adoxophyes honmai) | pest or weed control at 1 ppm (Plutella xylostella) | pest or weed control at 1 ppm (Helicoverpa armigera)
